Results as given in ChEMBL document CHEMBL5653615 (J Biol Chem, 2013).

How the values were obtained:
[1] = target: Receptor tyrosine-protein kinase erbB-2 (Homo sapiens) (UniProt P04626); test: Inhibition of human ERBB2 at 18.6 nM by HotSpot assay relative to control
[2] = target: T1, Beta-adrenergic receptor kinase 1 (Homo sapiens) (UniProt P25098); test: Inhibition of human GRK2 at 18.6 nM by HotSpot assay relative to control
T1 sequence (whole entry): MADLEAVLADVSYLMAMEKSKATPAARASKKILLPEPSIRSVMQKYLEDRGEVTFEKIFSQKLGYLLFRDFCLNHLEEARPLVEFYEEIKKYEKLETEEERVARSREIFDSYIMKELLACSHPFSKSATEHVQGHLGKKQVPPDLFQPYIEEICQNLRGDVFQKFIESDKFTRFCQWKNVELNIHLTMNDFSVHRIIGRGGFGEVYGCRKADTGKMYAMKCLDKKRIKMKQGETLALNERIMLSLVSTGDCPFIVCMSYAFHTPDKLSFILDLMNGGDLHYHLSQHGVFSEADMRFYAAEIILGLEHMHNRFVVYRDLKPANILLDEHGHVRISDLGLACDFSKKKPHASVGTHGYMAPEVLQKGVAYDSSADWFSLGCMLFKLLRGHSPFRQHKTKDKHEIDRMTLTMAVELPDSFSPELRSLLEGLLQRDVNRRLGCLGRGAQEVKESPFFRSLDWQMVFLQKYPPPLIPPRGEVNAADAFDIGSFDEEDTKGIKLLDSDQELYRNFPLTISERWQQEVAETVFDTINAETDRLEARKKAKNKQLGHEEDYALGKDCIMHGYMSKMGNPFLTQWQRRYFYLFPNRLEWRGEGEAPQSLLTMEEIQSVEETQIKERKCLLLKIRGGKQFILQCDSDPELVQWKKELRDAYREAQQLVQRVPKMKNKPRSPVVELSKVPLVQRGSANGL

[3] = target: Ribosomal protein S6 kinase alpha-3 (Homo sapiens) (UniProt P51812); test: Inhibition of human RSK2 at 18.6 nM by HotSpot assay relative to control
[4] = target: CDK6/cyclin D3 (Homo sapiens) (UniProt P30281+Q00534); test: Inhibition of human CDK6/cyclin D3 at 18.6 nM by HotSpot assay relative to control; type: protein-complex assay
[5] = target: Ribosomal protein S6 kinase alpha-2 (Homo sapiens) (UniProt Q15349); test: Inhibition of human RSK3 at 18.6 nM by HotSpot assay relative to control
[6] = target: Mitogen-activated protein kinase kinase kinase 10 (Homo sapiens) (UniProt Q02779); test: Inhibition of human MAP3K10 at 1.82 nM by HotSpot assay relative to control
[7] = target: Serine/threonine-protein kinase 16 (Homo sapiens) (UniProt O75716); test: Inhibition of human STK16 at 1.82 nM by HotSpot assay relative to control
[8] = target: Epidermal growth factor receptor (Homo sapiens) (UniProt P00533); test: Inhibition of human EGFR at 1.82 nM by HotSpot assay relative to control
[9] = target: RAF proto-oncogene serine/threonine-protein kinase (Homo sapiens) (UniProt P04049); test: Inhibition of human RAF1 at 1.82 nM by HotSpot assay relative to control
[10] = target: Calcium/calmodulin-dependent protein kinase type II subunit delta (Homo sapiens) (UniProt Q13557); test: Inhibition of human CAMK2d at 1.82 nM by HotSpot assay relative to control
[11] = target: T2, Muscle, skeletal receptor tyrosine-protein kinase (Homo sapiens) (UniProt O15146); test: Inhibition of human MUSK at 1.82 nM by HotSpot assay relative to control
T2 sequence (whole entry): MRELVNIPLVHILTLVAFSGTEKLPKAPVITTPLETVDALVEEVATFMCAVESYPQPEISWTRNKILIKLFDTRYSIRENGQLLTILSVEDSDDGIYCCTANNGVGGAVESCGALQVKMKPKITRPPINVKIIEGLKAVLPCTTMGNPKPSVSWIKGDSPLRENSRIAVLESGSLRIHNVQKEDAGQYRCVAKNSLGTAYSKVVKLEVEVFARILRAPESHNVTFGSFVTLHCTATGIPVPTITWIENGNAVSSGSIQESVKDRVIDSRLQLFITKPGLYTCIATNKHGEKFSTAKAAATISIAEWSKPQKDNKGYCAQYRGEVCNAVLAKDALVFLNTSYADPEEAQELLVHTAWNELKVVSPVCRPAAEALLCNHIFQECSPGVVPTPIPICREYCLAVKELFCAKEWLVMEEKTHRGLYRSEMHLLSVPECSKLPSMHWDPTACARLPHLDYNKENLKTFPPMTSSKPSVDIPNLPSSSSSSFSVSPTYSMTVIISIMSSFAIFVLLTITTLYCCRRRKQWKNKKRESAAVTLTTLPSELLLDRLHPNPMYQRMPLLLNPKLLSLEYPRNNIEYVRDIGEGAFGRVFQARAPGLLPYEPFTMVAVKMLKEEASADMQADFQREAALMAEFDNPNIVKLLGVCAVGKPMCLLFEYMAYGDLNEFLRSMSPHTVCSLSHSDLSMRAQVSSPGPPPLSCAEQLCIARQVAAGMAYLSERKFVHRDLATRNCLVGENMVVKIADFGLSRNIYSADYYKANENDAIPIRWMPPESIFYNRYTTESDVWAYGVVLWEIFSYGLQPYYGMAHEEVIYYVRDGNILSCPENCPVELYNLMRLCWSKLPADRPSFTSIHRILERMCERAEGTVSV

[12] = target: T3, NUAK family SNF1-like kinase 1 (Homo sapiens) (UniProt O60285); test: Inhibition of human ARK5 at 1.82 nM by HotSpot assay relative to control
T3 sequence (whole entry): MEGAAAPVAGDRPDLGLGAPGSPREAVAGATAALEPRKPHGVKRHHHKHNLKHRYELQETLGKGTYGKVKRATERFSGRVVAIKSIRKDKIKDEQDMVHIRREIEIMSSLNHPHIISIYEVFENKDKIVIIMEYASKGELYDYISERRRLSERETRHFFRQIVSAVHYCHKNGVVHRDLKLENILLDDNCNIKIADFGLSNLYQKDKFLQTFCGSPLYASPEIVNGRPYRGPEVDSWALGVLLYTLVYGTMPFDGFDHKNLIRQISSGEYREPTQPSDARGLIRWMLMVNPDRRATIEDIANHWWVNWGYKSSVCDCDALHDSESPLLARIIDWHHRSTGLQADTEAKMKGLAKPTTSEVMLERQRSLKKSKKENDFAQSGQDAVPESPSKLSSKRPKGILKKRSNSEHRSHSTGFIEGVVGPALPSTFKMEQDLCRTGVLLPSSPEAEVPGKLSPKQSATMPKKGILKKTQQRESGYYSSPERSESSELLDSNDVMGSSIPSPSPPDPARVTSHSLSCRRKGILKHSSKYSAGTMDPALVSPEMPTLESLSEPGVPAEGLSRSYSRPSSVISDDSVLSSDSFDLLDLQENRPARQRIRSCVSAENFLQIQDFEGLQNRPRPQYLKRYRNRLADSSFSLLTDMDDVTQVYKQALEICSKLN

Sequence of Epidermal growth factor receptor (Homo sapiens) (P00533 whole entry): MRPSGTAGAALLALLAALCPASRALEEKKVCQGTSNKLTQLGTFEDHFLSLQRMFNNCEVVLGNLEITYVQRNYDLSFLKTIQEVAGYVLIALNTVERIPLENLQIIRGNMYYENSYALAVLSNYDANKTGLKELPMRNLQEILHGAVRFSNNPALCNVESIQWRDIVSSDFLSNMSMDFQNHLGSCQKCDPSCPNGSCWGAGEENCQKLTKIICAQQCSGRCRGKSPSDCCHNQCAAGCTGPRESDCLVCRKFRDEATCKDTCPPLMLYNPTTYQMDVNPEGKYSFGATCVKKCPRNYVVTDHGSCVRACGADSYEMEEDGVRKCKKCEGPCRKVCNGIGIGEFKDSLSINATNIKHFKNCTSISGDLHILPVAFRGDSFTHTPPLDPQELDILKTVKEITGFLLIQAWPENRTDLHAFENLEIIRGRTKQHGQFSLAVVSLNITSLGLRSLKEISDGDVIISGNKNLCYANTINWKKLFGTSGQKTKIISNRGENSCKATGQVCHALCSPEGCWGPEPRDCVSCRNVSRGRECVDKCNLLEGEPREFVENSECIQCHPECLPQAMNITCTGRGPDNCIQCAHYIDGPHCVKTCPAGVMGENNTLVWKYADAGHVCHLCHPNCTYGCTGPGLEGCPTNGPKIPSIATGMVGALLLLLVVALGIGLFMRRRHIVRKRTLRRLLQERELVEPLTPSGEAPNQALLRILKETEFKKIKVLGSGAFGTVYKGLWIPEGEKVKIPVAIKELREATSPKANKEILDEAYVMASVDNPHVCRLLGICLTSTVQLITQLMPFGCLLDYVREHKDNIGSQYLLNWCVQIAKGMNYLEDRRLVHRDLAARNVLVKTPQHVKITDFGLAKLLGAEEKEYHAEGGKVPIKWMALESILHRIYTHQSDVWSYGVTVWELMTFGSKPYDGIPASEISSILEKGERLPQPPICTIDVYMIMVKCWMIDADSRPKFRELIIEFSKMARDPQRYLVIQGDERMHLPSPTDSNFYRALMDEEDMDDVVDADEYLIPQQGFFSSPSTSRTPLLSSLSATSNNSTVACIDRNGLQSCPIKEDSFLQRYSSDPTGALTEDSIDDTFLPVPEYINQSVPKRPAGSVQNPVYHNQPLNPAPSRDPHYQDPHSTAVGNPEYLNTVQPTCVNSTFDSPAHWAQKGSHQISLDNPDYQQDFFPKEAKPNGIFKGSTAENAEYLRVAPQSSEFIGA
Sequence of RAF proto-oncogene serine/threonine-protein kinase (Homo sapiens) (P04049 whole entry): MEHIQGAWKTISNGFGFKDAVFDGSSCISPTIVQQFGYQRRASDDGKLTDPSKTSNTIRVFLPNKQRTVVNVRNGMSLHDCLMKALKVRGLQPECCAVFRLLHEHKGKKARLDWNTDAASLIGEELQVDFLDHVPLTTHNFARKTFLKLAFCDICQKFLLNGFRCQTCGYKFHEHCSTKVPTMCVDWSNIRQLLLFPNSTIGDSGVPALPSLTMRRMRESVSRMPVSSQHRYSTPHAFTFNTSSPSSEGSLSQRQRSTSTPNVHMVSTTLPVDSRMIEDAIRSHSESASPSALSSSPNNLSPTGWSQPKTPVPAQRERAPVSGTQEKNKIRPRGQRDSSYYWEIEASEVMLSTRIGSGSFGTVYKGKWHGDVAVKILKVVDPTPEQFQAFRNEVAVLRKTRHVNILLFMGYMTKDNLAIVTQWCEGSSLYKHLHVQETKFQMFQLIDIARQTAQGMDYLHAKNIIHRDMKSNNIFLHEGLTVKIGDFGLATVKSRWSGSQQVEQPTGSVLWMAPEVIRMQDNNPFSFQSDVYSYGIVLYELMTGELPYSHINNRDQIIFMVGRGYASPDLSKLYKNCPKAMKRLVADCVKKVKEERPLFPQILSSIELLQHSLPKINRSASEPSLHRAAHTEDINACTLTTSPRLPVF
Sequence of Ribosomal protein S6 kinase alpha-2 (Homo sapiens) (Q15349 whole entry): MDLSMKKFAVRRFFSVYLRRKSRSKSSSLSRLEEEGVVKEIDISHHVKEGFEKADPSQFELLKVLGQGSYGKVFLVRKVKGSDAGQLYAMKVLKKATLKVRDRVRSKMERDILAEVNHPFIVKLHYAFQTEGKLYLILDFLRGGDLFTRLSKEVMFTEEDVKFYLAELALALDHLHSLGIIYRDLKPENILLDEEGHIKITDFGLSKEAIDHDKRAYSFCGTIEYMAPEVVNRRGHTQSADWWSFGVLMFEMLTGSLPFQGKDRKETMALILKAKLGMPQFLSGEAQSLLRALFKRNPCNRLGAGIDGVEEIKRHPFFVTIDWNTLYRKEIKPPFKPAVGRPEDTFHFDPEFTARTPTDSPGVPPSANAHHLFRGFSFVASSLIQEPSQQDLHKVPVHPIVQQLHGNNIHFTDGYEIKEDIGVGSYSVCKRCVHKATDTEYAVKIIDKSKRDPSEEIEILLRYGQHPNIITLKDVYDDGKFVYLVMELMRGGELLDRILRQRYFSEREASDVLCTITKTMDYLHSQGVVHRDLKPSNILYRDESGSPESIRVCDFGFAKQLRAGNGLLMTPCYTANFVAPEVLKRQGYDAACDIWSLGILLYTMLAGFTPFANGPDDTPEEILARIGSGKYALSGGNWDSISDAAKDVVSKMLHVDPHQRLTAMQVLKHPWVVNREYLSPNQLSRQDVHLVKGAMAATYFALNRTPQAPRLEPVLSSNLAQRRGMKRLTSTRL
Sequence of Ribosomal protein S6 kinase alpha-3 (Homo sapiens) (P51812 whole entry): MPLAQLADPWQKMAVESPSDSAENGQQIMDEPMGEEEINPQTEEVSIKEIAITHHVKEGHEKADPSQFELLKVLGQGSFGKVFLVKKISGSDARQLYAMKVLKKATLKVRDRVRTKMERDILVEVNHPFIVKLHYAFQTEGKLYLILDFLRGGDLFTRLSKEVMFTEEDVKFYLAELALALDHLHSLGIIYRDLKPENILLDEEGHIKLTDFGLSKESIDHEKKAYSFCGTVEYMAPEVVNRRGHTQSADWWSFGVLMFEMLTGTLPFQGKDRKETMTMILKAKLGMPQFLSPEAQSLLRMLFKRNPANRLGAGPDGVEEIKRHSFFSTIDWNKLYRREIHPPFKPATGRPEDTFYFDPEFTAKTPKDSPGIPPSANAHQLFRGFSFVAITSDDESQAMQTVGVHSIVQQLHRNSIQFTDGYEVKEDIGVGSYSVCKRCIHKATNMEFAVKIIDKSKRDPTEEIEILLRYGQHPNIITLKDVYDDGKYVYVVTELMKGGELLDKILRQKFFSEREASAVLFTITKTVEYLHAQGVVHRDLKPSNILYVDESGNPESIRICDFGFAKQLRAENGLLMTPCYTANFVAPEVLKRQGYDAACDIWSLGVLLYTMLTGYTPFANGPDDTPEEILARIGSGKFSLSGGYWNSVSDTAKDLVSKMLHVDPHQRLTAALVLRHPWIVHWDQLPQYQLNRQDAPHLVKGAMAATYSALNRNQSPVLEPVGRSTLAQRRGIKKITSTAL
Sequence of Serine/threonine-protein kinase 16 (Homo sapiens) (O75716 whole entry): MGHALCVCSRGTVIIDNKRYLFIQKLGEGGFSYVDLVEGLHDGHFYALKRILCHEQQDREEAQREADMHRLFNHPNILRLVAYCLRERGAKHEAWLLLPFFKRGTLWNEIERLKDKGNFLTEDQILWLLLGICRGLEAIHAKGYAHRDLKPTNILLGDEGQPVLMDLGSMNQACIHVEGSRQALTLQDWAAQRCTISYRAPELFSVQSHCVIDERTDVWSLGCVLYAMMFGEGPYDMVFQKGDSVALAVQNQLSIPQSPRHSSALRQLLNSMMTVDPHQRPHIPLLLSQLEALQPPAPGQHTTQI
Sequence of Receptor tyrosine-protein kinase erbB-2 (Homo sapiens) (P04626 whole entry): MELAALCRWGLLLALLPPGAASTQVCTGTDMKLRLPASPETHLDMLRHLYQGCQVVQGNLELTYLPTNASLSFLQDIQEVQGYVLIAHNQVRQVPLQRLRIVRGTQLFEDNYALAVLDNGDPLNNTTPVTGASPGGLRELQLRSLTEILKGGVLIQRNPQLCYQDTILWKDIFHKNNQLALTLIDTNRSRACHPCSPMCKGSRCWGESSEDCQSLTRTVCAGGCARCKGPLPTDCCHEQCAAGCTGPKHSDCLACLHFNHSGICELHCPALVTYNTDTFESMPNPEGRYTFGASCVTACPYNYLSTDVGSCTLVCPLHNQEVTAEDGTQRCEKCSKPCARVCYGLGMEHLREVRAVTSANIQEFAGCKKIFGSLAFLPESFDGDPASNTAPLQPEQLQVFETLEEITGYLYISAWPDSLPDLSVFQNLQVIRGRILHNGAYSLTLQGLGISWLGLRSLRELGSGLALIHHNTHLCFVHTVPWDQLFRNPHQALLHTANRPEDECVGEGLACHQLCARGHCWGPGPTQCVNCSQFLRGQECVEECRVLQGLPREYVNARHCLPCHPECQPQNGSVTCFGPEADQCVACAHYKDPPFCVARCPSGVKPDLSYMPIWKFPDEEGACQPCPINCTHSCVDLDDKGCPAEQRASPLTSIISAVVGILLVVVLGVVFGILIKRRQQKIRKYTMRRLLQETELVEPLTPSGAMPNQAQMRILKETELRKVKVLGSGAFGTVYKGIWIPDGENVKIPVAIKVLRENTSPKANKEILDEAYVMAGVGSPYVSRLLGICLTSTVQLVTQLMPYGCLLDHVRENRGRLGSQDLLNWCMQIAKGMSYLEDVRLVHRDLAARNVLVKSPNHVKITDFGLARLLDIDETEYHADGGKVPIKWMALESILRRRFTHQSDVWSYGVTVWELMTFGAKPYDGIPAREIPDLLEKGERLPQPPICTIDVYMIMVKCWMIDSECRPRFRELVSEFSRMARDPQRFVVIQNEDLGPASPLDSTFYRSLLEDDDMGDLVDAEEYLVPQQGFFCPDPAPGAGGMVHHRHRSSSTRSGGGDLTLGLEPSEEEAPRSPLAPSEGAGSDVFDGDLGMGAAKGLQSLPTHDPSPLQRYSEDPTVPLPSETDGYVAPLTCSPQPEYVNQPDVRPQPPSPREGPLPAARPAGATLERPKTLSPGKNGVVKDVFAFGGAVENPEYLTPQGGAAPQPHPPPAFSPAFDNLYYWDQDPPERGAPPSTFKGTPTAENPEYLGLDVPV

inhibition [1]	inhibition [2]	inhibition [3]	inhibition [4]	inhibition [5]	inhibition [6]	inhibition [7]	inhibition [8]	inhibition [9]	inhibition [10]	inhibition [11]	inhibition [12]	SMILES
1.71%	-1%	1.82%	-9.8%	-2.23%	–	–	–	–	–	–	–	C[C@]1(O)C[C@@H](c2nc(-c3ccc4ccc(-c5ccccc5)nc4c3)c3c(N)nccn32)C1
–	–	–	–	–	-1.81%	-1.36%	-6.78%	-9.08%	-2.72%	-0.39%	1.78%	C[C@@]1(C(=O)Nc2ccc(F)nc2)CCCN1c1nc(Nc2cc(C3CC3)n[nH]2)c2cccn2n1
